Patent publication US20190367448A1, “TREATMENT OF SLEEP-WAKE DISORDERS” (SK Biopharmaceuticals Co., Ltd., priority 2005, published 2019)

Tested on: male adult Sprague Dawley rats
Assay: Sleep-wake organization in rats, polysomnographic recording (EEG, EOG, EMG, body movement) for 16 hours after acute i.p. administration
Assay type: in vivo, rat
Details: for Duration (min) Active wake / Duration (min) Deep sleep / Duration (min) Light sleep / Duration (min) Passive wake / Duration (min) REM sleep / Duration (min) intermediate stage / ISWS/TST (%) / Latency (min) ISWS / Latency (min) REM sleep / Latency (min) dSWS / REMS/TST (%) / Shifts (number) Shift from ISWS to AW / Shifts (number) Shift from ISWS to PW / Shifts (number) Shift from REMS to AW / Shifts (number) Shift from REMS to PW / Shifts (number) Shift from dSWS to AW / Shifts (number) Shift from dSWS to PW / Total sleep time TST / dSWS/TST (%): 16 hours recording period; for change in mean duration of REM sleep stage / change in number of REM sleep epochs / change in number of active wake epochs / change in number of deep sleep epochs / change in number of light sleep epochs / change in total time spent in REM sleep / change in total time spent in active wakefulness / change in total time spent in deep (rebound) sleep / change in total time spent in light sleep / change in mean duration of deep sleep stage: 16 hours recording; for change in total time spent in REM sleep / change in total time spent in active wakefulness / change in total time spent in deep (rebound) sleep / change in total time spent in light sleep: vs vehicle

## CC(N)Cc1ccccc1 (stereo not shown) [Amphetamine, amphetamine]
rats, 1 mg/kg
  period of enhanced active wakefulness: 3 h
  period of reduction in light, deep and REM sleep durations: 3 h
  change in mean duration of REM sleep stage: −16%
  change in number of REM sleep epochs: −4%
  change in number of active wake epochs: +27%
  change in number of deep sleep epochs: +73%
  change in number of light sleep epochs: −35%
  change in total time spent in REM sleep: −4%
  change in total time spent in active wakefulness: +27%
  change in total time spent in deep (rebound) sleep: +73%
  change in total time spent in light sleep: −35%
rats, 1 mg/kg i.p.
  Duration (min) Active wake: 382.4 min
  Duration (min) Deep sleep: 188.0 min
  Duration (min) Light sleep: 242.7 min
  Duration (min) Passive wake: 50.0 min
  Duration (min) REM sleep: 88.6 min
  Duration (min) intermediate stage: 4.0 min
  ISWS/TST (%): 45.1 ± 5.3 %
  Latency (min) ISWS: 140.6 ± 13.4 min
  Latency (min) REM sleep: 208.6 ± 14.4 min
  Latency (min) dSWS: 161.7 ± 5.3 min
  REMS/TST (%): 16.9 ± 0.9%
  Shifts (number) Shift from ISWS to AW: 198.8 number
  Shifts (number) Shift from ISWS to PW: 64.4 number
  Shifts (number) Shift from REMS to AW: 66.5 number
  Shifts (number) Shift from REMS to PW: 5.8 number
  Shifts (number) Shift from dSWS to AW: 11.7 number
  Shifts (number) Shift from dSWS to PW: 37.7 number
  Total sleep time TST: 523.3 ± 25.3 min
  dSWS/TST (%): 36.6 ± 5.7 %
rats, 3 mg/kg
  period of enhanced active wakefulness: 4 h
  period of reduction in light, deep and REM sleep durations: 4 h
  change in mean duration of REM sleep stage: −23%
  change in mean duration of deep sleep stage: −19%
  change in number of REM sleep epochs: −22%
  change in number of active wake epochs: +47%
  change in number of deep sleep epochs: +91%
  change in number of light sleep epochs: −49%
  change in total time spent in REM sleep: −22%
  change in total time spent in active wakefulness: +47%
  change in total time spent in deep (rebound) sleep: +91%
  change in total time spent in light sleep: −49%
rats, 3 mg/kg i.p.
  Duration (min) Active wake: 441.8 min
  Duration (min) Deep sleep: 207.6 min
  Duration (min) Light sleep: 187.9 min
  Duration (min) Passive wake: 43.5 min
  Duration (min) REM sleep: 71.4 min
  Duration (min) intermediate stage: 4.0 min
  ISWS/TST (%): 38.3 ± 3.4 %
  Latency (min) ISWS: 228.2 ± 25.0 min
  Latency (min) REM sleep: 338.6 ± 24.3 min
  Latency (min) dSWS: 242.0 ± 19.4 min
  REMS/TST (%): 14.7 ± 0.7%
  Shifts (number) Shift from ISWS to AW: 178.7 number
  Shifts (number) Shift from ISWS to PW: 62.4 number
  Shifts (number) Shift from REMS to AW: 59.3 number
  Shifts (number) Shift from REMS to PW: 3.3 number
  Shifts (number) Shift from dSWS to AW: 14.8 number
  Shifts (number) Shift from dSWS to PW: 26.6 number
  Total sleep time TST: 460.9 ± 12.0 min
  dSWS/TST (%): 46.0 ± 3.0 %
rats, 10 mg/kg
  period of enhanced active wakefulness: 6 h
  period of reduction in light, deep and REM sleep durations: 6 h
  change in mean duration of REM sleep stage: −36%
  change in mean duration of deep sleep stage: −30%
  change in number of REM sleep epochs: −41%
  change in number of active wake epochs: +66%
  change in number of deep sleep epochs: +66%
  change in number of light sleep epochs: −51%
  change in total time spent in REM sleep: −41%
  change in total time spent in active wakefulness: +66%
  change in total time spent in deep (rebound) sleep: +66%
  change in total time spent in light sleep: −51%
rats, 10 mg/kg i.p.
  Duration (min) Active wake: 498.7 min
  Duration (min) Deep sleep: 181.2 min
  Duration (min) Light sleep: 182.0 min
  Duration (min) Passive wake: 35.6 min
  Duration (min) REM sleep: 53.6 min
  Duration (min) intermediate stage: 4.0 min
  ISWS/TST (%): 43.2 ± 5.7 %
  Latency (min) ISWS: 284.7 ± 56.1 min
  Latency (min) REM sleep: 440.8 ± 57.8 min
  Latency (min) dSWS: 367.3 ± 5.5 min
  REMS/TST (%): 13.0 ± 0.9%
  Shifts (number) Shift from ISWS to AW: 201.7 number
  Shifts (number) Shift from ISWS to PW: 49.0 number
  Shifts (number) Shift from REMS to AW: 50.0 number
  Shifts (number) Shift from REMS to PW: 2.2 number
  Shifts (number) Shift from dSWS to AW: 9.7 number
  Shifts (number) Shift from dSWS to PW: 11.6 number
  Total sleep time TST: 422.9 ± 19.5 min
  dSWS/TST (%): 42.9 ± 5.3 %
rats, 1, 3, 10 mg/kg
  latencies of all sleep states: significantly increased
rats, 1, 3, and 10 mg/kg
  mean duration of light sleep: not significantly modified
rats, different doses (1, 3, 10 mg/kg)
  mean duration of active wake: not modified
rats, dose-dependent, 1, 3, 10 mg/kg
  period of increased wakefulness and reduced sleep states following administration: 3 to 8 h
rats, reduced during 3-6 hours following the injection, then increased (rebound)
  effect on the time spent in deep sleep stage: biphasic effect
